Test results: US20090041719A1, “Method for screening therapeutic agent for glomerular disorder” (priority 2006, published 2009)
Values joined by “and” are separate entries in the source; they are usually repeats but may differ in a detail not shown here. Equal entries are not always repeated.

Tests used:
FRP-1/CD98/4F2hc = experiment: FACScan of FRP-1/CD98/4F2hc expression on macrophage fraction of LPS-stimulated human PBMC (monoclonal antibodies 4-5-1, 6-1-3, HBJ-127); format: cell-based
4F2hc [1] = experiment: HAT heavy chain 4F2hc on large-monocyte fraction of LPS-stimulated human PBMC, peak value by FACScan (polyclonal antibody); format: cell-based
Description: (§1) In the same manner as in 1) to 5) of Experimental Example 1, to human peripheral blood mononuclear cells, the test compound (6-2) (final concentration: 10 nM) or the test compound (7-3) (final concentration: 100 nM) was added at the same time when LPS (final concentration: 80 μg/ml) was added, followed by 6-day culture. Further, in the same manner as above, using rabbit anti-human 4F2hc polyclonal antibodies (see Biol Pharm Bull 30:415-422, 2007) as a primary antibody, the peak value of HAT expressed on the fraction of large-macrophages (larger than monocyte macrophages) in human PBMC was measured by FACScan using a commercially available cell fix/cell membrane infiltration kit (trade name: BD Cytofix/Cytoperm™ Kit, catalog No. 554714, BD Biosciences).
(§2) As a control, the one with no test-compound addition was used, and as a rabbit anti-human rBAT (related to b^0,+-type amino acid transporter) polyclonal antibody, the one obtained by coupling a synthesized peptide composed of an amino-terminal of human rBAT (MAEDKSKRDSIEMSMKGC (SEQ ID NO: 2)) and a carboxyl-terminal of mouse b^0,+AT (BAT1) (CHLQMLEWPEKDPE (SEQ ID NO: 3)) to a carrier KLH (keyhole-limpet hemocyanin), and immunizing a rabbit with it.

rBAT = experiment: HAT heavy chain rBAT on large-monocyte fraction of LPS-stimulated human PBMC, peak value by FACScan; format: cell-based; conditions: human PBMC + LPS 80 μg/ml, 6-day culture; test compound 100 nM; solvent control 37
Description: as §1, §2

4F2hc [2] = experiment: 4F2hc on large-cell fraction of LPS-stimulated THP-1, peak value by FACScan; format: cell-based, human
Description: The same procedures as in Experimental Example 2 were taken except the following conditions: human leukemia culture cell line THP-1 was used instead of the human peripheral blood mononuclear cells; the final addition concentration of the test compound (6-2) was set to 100 nM, and the final addition concentration of the test compound (7-3) was set to 1000 nM; and fetal bovine serum was used instead of the human AB serum. The peak value of HAT expressed on the fraction of large-cells in human leukemia culture cell strain THP-1, compared with those not stimulated with LPS, was measured. As a control, the one with no test-compound addition was used, and the peak value of HAT was measured by FACScan using a commercially available cell fix/cell membrane infiltration kit (trade name: BD Cytofix/Cytopem™ Kit, catalog No. 554714, BD Bioscience).

[3] = tested on: rat unilateral ureteral obstruction release model; experiment: Rat unilateral ureteral obstruction release model: glomerular and tubulointerstitial lesions, Asc-1+ cells; format: in vivo, SD rat;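 as to Tubulointerstitial lesion: atrophy of tubules associated with dilatation of tubules (score): ± very light + light ++ moderate +++ high change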;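 as to Tubulointerstitial lesion: fibrosis of interstitial tissue (score): ± very light + light ++ moderate +++ high change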;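 as to Tubulointerstitial lesion: thickness of basement membrane (score): ± very light + light ++ moderate +++ high change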
From the text: An experimental model was produced in accordance with the method devised and established by Ishibashi (Michio Ishibasi et al., Japanese Journal of Nephrology 42: 248, 2000), using a 8 to 9-week-old male SD rat weighing about 280 g. […] On day 14 after obstruction, the obstruction was released, and the urinary tract was reconstructed using a cuff. That is, 14 days later, the ligated ureteral obstruction part was partially removed, and a 25 gauge polyethylene tube (made by Nippon Sherwood) as a cuff was inserted from the lower normal ureteral stump and placed in the lumen. Next, the cuff was placed also in the expanded upper ureter, and both parts were ligated for fixation with a 7-0 nylon suture to reconstruct the urinary tract. At the same time, the right kidney was removed. The weight was measured after obstruction release, and the blood was collected on days 2, 5, and 7 after release for serum creatinine determination. On day 7, the rat was sacrificed under anesthesia and the left obstruction release kidney was removed. The weight of the removed kidney was measured, and the kidney pathomorphological examination was performed.
The biological effects of the test compound were studied in vivo using the model obtained in the above procedure 1). The test compound in the form of bulk powder was dissolved in sterilized physiologic saline together with gum arabic, where the concentration of the gum arabic was adjusted to 5% and the concentration of the test compound was adjusted to 30 mg/ml. The amount of 30 mg/kg was subcutaneously administered every day. Daily administration was continued for 21 days during 14 days of obstruction and 7 days after obstruction release. For controlled comparison, the solvent of 5% gum arabic was administered alone.
On day 22 from the administration of the test compound, the rat was sacrificed under anesthesia, and the left obstruction release kidney was removed and neutral formalin fixed. The fixed renal tissue embedded in paraffin was sliced into 4-micrometer-thick pieces for examination.
The tissue section was observed under a microscope in order to count the number of glomeruli and the number of glomeruli having a lesion (expansion of a tubular pole associated with swollen Bowman's capsule epithelial cells or hypertrophy of a Bowman's capsule basal membrane) in the field of view, and the number of glomeruli having the lesion (referred to as “lesioned glomerulus”) per 50 glomeruli was calculated.
As for the effectiveness to improve of glomerular lesions, when the number of lesioned glomeruli per 50 glomeruli was reduced to less than or equal to half the average number of those of the control group, it was determined as improved.
An affinity-purified anti-rat Asc-1 polyclonal antibody (rabbit) was prepared as follows: that is, in order to prepare an anti-Asc-1 peptide polyclonal antibody (rabbit), an oligopeptide (PSPLPITDKPLKTQC (SEQ. ID NO: 4)) corresponding to amino acid residues of 517-530 of Asc-1 was synthesized (see J Biol Chem (2000); 275: 9690-9698), keyhole limpet hemocyanine was bound to the C-terminal cysteine as an adjuvant, and […] was immunized therewith. The serum was collected on days 7 and 14 from the immunization. The serum was concentrated by means of an adsorption-dissociation operation using an affinity column to which an oligopeptide corresponding to amino acid residues of 517-530 of Asc-1 was bound in order to obtain an affinity-purified antibody having a protein content of 0.5 mg/ml. As for immunopathological examination, paraffin rat […] diluted with PBS to the optimal concentration was used.
The immune tissue staining was performed based on the protocol of Ventana HX system bench mark (Ventana Japan K.K., Tokyo) including the automated immunostaining device manufactured by Ventana Japan K.K. After deparaffinization, the tissue section was heat-treated at 100° C. for 1 hour. […]

[4] = tested on: glomerular lesions; renal tubulointerstitial lesions; conditions: International Publication WO 2004/024185 and 01/72730 pamphlets; cited from earlier work
[5] = human PBMC + LPS 80 μg/ml, 6-day culture, test compound 100 nM
[6] = group average ± standard deviation
[7] = individual animal, 30 mg/kg s.c. daily for 21 days, 30 mg/kg
[8] = individual animal, points: ± 0.5, + 1, ++ 2, +++ 3

## O=C1OC(Cl)(C(=O)OCc2ccccc2)c2ccccc21 (stereo not drawn) [Compound (7-3)]
FRP-1/CD98/4F2hc; [5]
  Migration of FRP-1/CD98/4F2hc expression of macrophage fraction by FACScan (migration rate %), monoclonal antibody 4-5-1 (FRP-1): 2.6%
  Migration of FRP-1/CD98/4F2hc expression of macrophage fraction by FACScan (migration rate %), monoclonal antibody 6-1-3 (FRP-1): 2.0%
  Migration of FRP-1/CD98/4F2hc expression of macrophage fraction by FACScan (migration rate %), monoclonal antibody HBJ-127 (CD98): 5.4%
FRP-1/CD98/4F2hc; stimulated and cultured with LPS, summary of Table 1
  expression of FRP-1/CD98/4F2hc on macrophage fraction of human PBMC (in words): did not increase the expression
4F2hc [1]; human PBMC + LPS 80 μg/ml, 6-day culture, test compound 100 nM, solvent control 23
  Change in HAT expressed on large-monocyte fraction of human PBMC (peak value by FACScan), 4F2hc: 20
4F2hc [1]; human PBMC + LPS, summary of Table 2
  amount of 4F2hc in the heavy chain of HAT (in words): did not show any effects
rBAT
  Change in HAT expressed on large-monocyte fraction of human PBMC (peak value by FACScan), rBAT: 38
4F2hc [2]; THP-1 + LPS 80 μg/ml, fetal bovine serum, test compound 1000 nM, solvent control 12
  Change in HAT expressed on large-cell fraction of THP-1 (peak value by FACScan), 4F2hc: 11
4F2hc [2]; THP-1 + LPS, summary of Table 3
  amount of 4F2hc in the heavy chain of HAT (in words): did not make any change
[3]; control group: one rat out of four
  amelioration / reduction of tubulointerstitial lesions, rats of the group: all of four rats
[3]; [6]
  Glomerular lesion: number of lesioned glomeruli per 50 glomeruli, expansion of tubular pole associated with swollen Bowman's capsule epithelial cells: 5 ± 3 per 50 glomeruli
  Glomerular lesion: number of lesioned glomeruli per 50 glomeruli, hypertrophy of Bowman's capsule basal membrane: 14 ± 5 per 50 glomeruli
  Number of Asc-1+ cells per 50 glomeruli: 0.90 ± 0.47 per 50 glomeruli
  Tubulointerstitial lesion: atrophy of tubules associated with dilatation of tubules (score): 0.50 ± 0.4
  Tubulointerstitial lesion: fibrosis of interstitial tissue (score): 0.5 ± 0
  Tubulointerstitial lesion: thickness of basement membrane (score): 0.4 ± 0.3
  Tubulointerstitial lesion: total score: 1.4 ± 0.6
[3]; [7]
  Glomerular lesion: number of lesioned glomeruli per 50 glomeruli, expansion of tubular pole associated with swollen Bowman's capsule epithelial cells: 9 per 50 glomeruli and 1 per 50 glomeruli and 6 per 50 glomeruli and 4 per 50 glomeruli
  Glomerular lesion: number of lesioned glomeruli per 50 glomeruli, hypertrophy of Bowman's capsule basal membrane: 20 per 50 glomeruli and 10 per 50 glomeruli and 16 per 50 glomeruli and 11 per 50 glomeruli
  Number of Asc-1+ cells per 50 glomeruli: 1.35 per 50 glomeruli and 0.47 per 50 glomeruli and 1.27 per 50 glomeruli and 0.53 per 50 glomeruli
[3]; individual animal, Yes = lesioned glomeruli per 50 glomeruli reduced to less than or equal to half the control average
  Improvement of glomerular lesion: No (2×) and Yes (2×)
[3]; [8]
  Tubulointerstitial lesion: atrophy of tubules associated with dilatation of tubules (score): 0.5 (2×) and 0 and 1
  Tubulointerstitial lesion: fibrosis of interstitial tissue (score): 0.5
  Tubulointerstitial lesion: thickness of basement membrane (score): 0.5 (3×) and 0
[3]; individual animal, sum of the three scores
  Tubulointerstitial lesion: total score: 1.5 (2×) and 0.5 and 2
[3]; versus control group
  Asc-1 positive cells in the glomeruli (in words): only a small number
[4]
  known action on renal tubulointerstitial lesions: selectively inhibit the renal tubulointerstitial lesions
